# Source: paper PMC3388080 (PLoS ONE, 2012)
# How the values were obtained:
# [1] = Plasma protein binding (free fraction), human plasma
# Protocol: (§1) Pharmacokinetic analyses were performed at F. Hoffmann-La Roche as described in supporting Materials and Methods S1.
# Male Wistar rats = experiment: Spontaneous locomotor activity during the active phase; type: in vivo, rat; settings: for spontaneous LMA: vehicle 6097±536; for effect on spontaneous LMA (in words): 3, 10, 30 mg/kg ip at ZT15, almorexant significant only at 30 mg/kg, SB-334867 at 10 and 30 mg/kg
# Protocol: (§2) Locomotor activity (LMA) was evaluated at F. Hoffmann-La Roche as described previously. Male Wistar rats were placed for 2 weeks in a 12 h light/12 h dark cycle with light onset at 22∶00 (ZT0). […] Spontaneous LMA was recorded for a period of 30 min. At the end of the experiment, the brain and plasma were collected for determination of the drug exposure and brain/plasma concentration ratio.
# Horizontal locomotor activity was recorded for a period of 30 min. Numbers on the X-axes represent intraperitoneal doses in mg/kg.***p<0.001, **p<0.01, *p<0.05 vs. Veh (one-way ANOVA followed by Dunnett’s analysis). All data are mean±SEM (n = 8 per group).
# [2] = Stability in human plasma
# Protocol: as §1
# [3] = biological target: T1, TRH1 (h) (antagonist effect) (Homo sapiens, UniProt P34981); experiment: CEREP screen, antagonist effect; type: biochemical; settings: % of control
# T1 construct: purchased CEREP
# T1 sequence (P34981 whole entry): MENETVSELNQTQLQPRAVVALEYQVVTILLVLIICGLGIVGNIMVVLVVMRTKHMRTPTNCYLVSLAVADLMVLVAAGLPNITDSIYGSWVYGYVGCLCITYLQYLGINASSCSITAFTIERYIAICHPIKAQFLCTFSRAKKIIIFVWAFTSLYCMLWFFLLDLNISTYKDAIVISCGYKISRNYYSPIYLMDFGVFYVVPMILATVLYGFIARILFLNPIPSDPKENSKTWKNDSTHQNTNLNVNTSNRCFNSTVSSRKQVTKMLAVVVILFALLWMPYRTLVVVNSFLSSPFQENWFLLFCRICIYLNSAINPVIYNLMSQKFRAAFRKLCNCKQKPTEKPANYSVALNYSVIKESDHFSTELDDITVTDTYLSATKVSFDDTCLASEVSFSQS
# Protocol: SB-334867 was evaluated in a selectivity screen performed at CEREP (Paris, France). The screen consisted of binding assays on a panel of 79 target receptors. The specific binding (SB) of a radioligand to each target receptor was defined as the difference between the total binding and the nonspecific binding determined in the presence of a cold competitor in excess. […] Details on the CEREP screen are available from www.cerep.fr.
# [4] = Plasma and brain exposure at the end of the LMA experiment; type: in vivo, rat; settings: 35 min
# Protocol: as §2
# The plasma and brain exposure of SB-334867 were measured at the end of the LMA experiment.
# Stability in rat plasma = experiment: Stability in rat plasma
# Protocol: as §1
# [5] = Plasma protein binding (free fraction), rat plasma
# Protocol: as §1
# (§3) Cmax, maximum concentration; Tmax, time at which maximum concentration was observed; AUC, area under the plasma concentration vs. time curve; CL, clearance; Vss, volume of distribution at steady state; T1/2, terminal half-life; F, bioavailability; Fu, Fraction unbound. Plasma values are mean, n=2.
# [6] = Pharmacokinetics after single i.v. or p.o. bolus in Wistar rat
# Protocol: as §1, §3
# rHCRTR1 = biological target: T2, rHCRTR1 (Rattus norvegicus, UniProt P56718); experiment: Inhibition of [^3H]almorexant binding to HEK293-rHCRTR1 membranes
# T2 construct: expressed in transfected cells; host or cells: HEK293 (transient transfection, pCI-Neo vector), membrane preparation
# T2 sequence (P56718 1-416): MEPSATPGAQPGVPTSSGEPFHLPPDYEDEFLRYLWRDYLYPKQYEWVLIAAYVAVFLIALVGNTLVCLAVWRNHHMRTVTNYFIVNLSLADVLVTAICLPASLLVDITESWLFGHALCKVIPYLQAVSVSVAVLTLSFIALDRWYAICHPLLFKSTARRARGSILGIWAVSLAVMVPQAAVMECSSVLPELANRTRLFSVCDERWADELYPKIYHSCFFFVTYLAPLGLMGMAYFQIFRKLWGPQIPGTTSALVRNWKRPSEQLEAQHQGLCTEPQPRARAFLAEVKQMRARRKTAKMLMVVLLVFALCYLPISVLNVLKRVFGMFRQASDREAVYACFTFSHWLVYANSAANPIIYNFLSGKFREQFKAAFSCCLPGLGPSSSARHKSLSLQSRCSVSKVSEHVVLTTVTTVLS
# Excerpt: The rat cDNAs encoding HCRTR1 (Accession No. P56718) and HCRTR2 (Accession No. P56719) were subcloned into pCI-Neo expression vectors (Promega, Madison, WI) and used to transfect HEK293 cells (acquired commercially from ATCC-LGC, Molsheim, France) as previously described.
# [7] = i.v., dose 2.40 / 5.18 / 12.10 mg/kg
# [8] = p.o., dose 6.35 / 8.75 / 18.16 mg/kg
smiles,measurement,setting,value
"Cc1nc2ccc(NC(=O)Nc3ccnc4cccnc34)cc2o1.Cl [SB-334867, 1-(2-methylbenzoxazol-6-yl)-3-[1], [5]naphthyridin-4-yl-urea hydrochloride]",free fraction,[1],1.3%
same,spontaneous LMA,"Male Wistar rats; 10 mg/kg ip at ZT15, 30 min recording",3509±383
same,spontaneous LMA,"Male Wistar rats; 30 mg/kg ip at ZT15, 30 min recording",2626±341
same,effect on spontaneous LMA (in words),Male Wistar rats,dose-dependently reduced spontaneous LMA
same,stability in plasma,[2]; 1 h,95%
same,stability in plasma,[2]; 4 h,93%
same,% Control (10 µM) Mean SB,[3],78.5%
same,brain level,[4]; 3 mg/kg ip,48 ng/mL
same,plasma level,[4]; 3 mg/kg ip,220 ng/mL
same,brain level,[4]; 10 mg/kg ip,171 ng/mL
same,plasma level,[4]; 10 mg/kg ip,718 ng/mL
same,brain level,[4]; 30 mg/kg ip,142 ng/mL
same,plasma level,[4]; 30 mg/kg ip,738 ng/mL
same,stability in plasma,Stability in rat plasma; 1 h,104%
same,stability in plasma,Stability in rat plasma; 4 h,110%
same,Fu (fraction unbound / free fraction),[5],0.8%
same,CL,[6]; i.v.,5.40 mL/min/kg
same,Vss,[6]; i.v.,0.57 L/kg
same,AUC/Dose,[6]; [7],3118.90 ng/h/mL
same,T1/2 (terminal half-life),[6]; [7],1.21 h
same,Tmax,[6]; [7],0.00 h
same,Cmax/Dose,"[6]; i.v., dose almorexant 2.40, SB-334867 5.18, SB-408124 12.10 mg/kg",1937.40 ng/mL
same,F (bioavailability),[6]; p.o.,45.70%
same,AUC/Dose,[6]; [8],1423.50 ng/h/mL
same,T1/2 (terminal half-life),[6]; [8],3.10 h
same,Tmax,[6]; [8],1.50 h
same,Cmax/Dose,"[6]; p.o., dose almorexant 6.35, SB-334867 8.75, SB-408124 18.16 mg/kg",331.10 ng/mL
same,Vss (in words),[6]; rat,medium
same,oral bioavailability (in words),[6]; rat,medium
same,systemic plasma clearance (in words),[6]; rat,low
"CNC(=O)[C@@H](c1ccccc1)N1CCc2cc(OC)c(OC)cc2[C@@H]1CCc1ccc(C(F)(F)F)cc1 [almorexant, (2R)-2-[(1S)-6,7-Dimethoxy-1-[2-(4-trifluoromethyl-phenyl)-ethyl]-3,4-dihydro-1H-isoquinolin-2-yl]-N-methyl-2-phenyl-acetamide]",fraction unbound,"[1]; human, plasma",< 0.037
same,effect on spontaneous LMA (in words),Male Wistar rats,dose-dependently reduced LMA
same,stability in plasma,[2]; 2 h,90.0%
same,Ki,rHCRTR1,7.1 ± 0.7 nM
same,stability in plasma,Stability in rat plasma; 2 h,95.0%
same,fraction unbound,"[5]; rat, plasma",< 0.087
same,AUC/Dose,"[6]; Wistar, rat, in vivo, iv",193.70 ng/h/mL
same,Tmax,"[6]; Wistar, rat, in vivo, iv",0 h
same,Vd,"[6]; Wistar, rat, in vivo, iv",9.45 L/kg
same,clearance,"[6]; Wistar, rat, in vivo, iv",87.1 mL/min/kg
same,half-life,"[6]; Wistar, rat, in vivo, iv",2.58 h
same,Cmax/Dose,"[6]; Wistar, rat, in vivo, iv, 12.1 mg/kg",238.20 ng/mL
same,AUC/Dose,"[6]; Wistar, rat, in vivo, po",28.00 ng/h/mL
same,Tmax,"[6]; Wistar, rat, in vivo, po",0.5 h
same,bioavailability,"[6]; Wistar, rat, in vivo, po",14.4%
same,half-life,"[6]; Wistar, rat, in vivo, po",1.29 h
same,Cmax/Dose,"[6]; Wistar, rat, in vivo, po, 18.16 mg/kg",12.90 ng/mL
same,Vss (in words),"[6]; rat, in vivo",high
same,systemic plasma clearance (in words),"[6]; rat, in vivo",high
same,oral bioavailability (in words),"[6]; rat, in vivo, po",low
